Laboratory results reported in publication PMC7910394, “Design of PSMA ligands with modifications at the inhibitor part: an approach to reduce the salivary gland uptake of radiolabeled PSMA inhibitors?” (EJNMMI Radiopharmacy and Chemistry, 2021).

Legend:
PSMA = biological target: T1, PSMA (Homo sapiens, UniProt Q04609); assay: Competitive binding assay (IC50) on LNCaP cells with ([125I]I-BA)KuE as radioligand; conditions: ([125I]I-BA)KuE 0.2 nM, HBSS (1% BSA), 4 °C, 1 h
T1 construct: host or cells: LNCaP human prostate cancer cells
Experimental: (§1) PSMA-positive LNCaP cells (300265; Cell Lines Service, Eppelheim, Germany) were cultivated in Dulbecco’s modified Eagle medium/Nutrition Mixture F-12 with GlutaMAX (1/1, DMEM-F12, Thermo Fisher Scientific, Darmstadt, Germany) supplemented with 10% fetal bovine serum (Merck KGaA, Darmstadt, Germany) and kept at 37 °C in a humidified 5% CO2 atmosphere. One day (24 ± 2 h) prior to all in vitro experiments, the cultivated LNCaP cells were harvested using a mixture of trypsin/ethylenediamine-tetraacetic acid (0.05%/0.02%) in PBS (Thermo Fisher Scientific, Darmstadt, Germany) and centrifuged at 1300 rpm (ca. 190×g) for 3 min at room temperature (Heraeus Megafuge 16, Thermo Fisher Scientific, Darmstadt, Germany). After centrifugation, the supernatant was disposed and the cell pellet was resuspended in culture medium. Cells were counted with a Neubauer hemocytometer (Paul Marienfeld GmbH & Co. KG, Lauda-Königshofen, Germany) and seeded in 24-well plates.
(§2) Detailed information on affinity and internalization experiments is provided in the supporting information. […] IC50 values of (^natI-BA)KuE were determined on the same day for monitoring assay performance and to identify abnormal deviations in uptake and/or affinity. […] Data were corrected for non-specific binding and normalized to the specific internalization observed for the radioiodinated reference compound (n = 3).
The culture medium was removed and the cells were washed with 500 µL of Hank’s balanced salt solution (HBSS) (Merck KGaA, Darmstadt, Germany), containing 1% bovine serum albumin (BSA) (Merck KGaA, Darmstadt, Germany). Afterwards, 200 µL of HBSS (1% BSA) were added to each well and equilibrated on ice (4 °C) for 15 min. […] Experiments were carried out in triplicates for each concentration. The final concentrations of unlabeled ligand ranged from 10^-11 - 10^-5 M and the final radioligand concentration was 0.2 nM in all binding assays. The cells were incubated for one hour at 4 °C. Incubation was terminated by removal of the incubation medium. The cells were washed with 250 µL of HBSS (1% BSA) and the wash medium was combined with the respective supernatant. This fraction represents the amount of free radioligand. The cells were lysed by addition of 250 µL of 1 M aqueous NaOH. The lysate of each well was transferred to the respective vial as well as 250 µL of 1 M NaOH used for rinsing the well. Quantification of the amount of free and bound activity was performed in a γ-counter. The corresponding IC50 values were calculated using the GraphPad PRISM7 software.

LNCaP cells = assay: Internalization study of 177Lu-labeled ligands in LNCaP cells, normalized to ([125I]I-BA)KuE; type: cell-based, human; conditions: 37 °C; for internalization (in words): time points 0.5 h, 2 h and 4 h; for %Internalization compared to the reference: 1.0 nM 177Lu-compound, normalized to ([125I]I-BA)KuE
Experimental: as §1, §2
The culture medium was removed and the cells were washed with 500 µL of DMEM-F12 containing 5% BSA. Afterwards, 200 µL of DMEM-F12 (5% BSA) were added to each well and left to equilibrate at 37 °C for 15 min. 25 µL of DMEM-F12 (5% BSA) were added to each well, followed by the addition of 25 µL of the respective ^177Lu-labeled ligand (10.0 nM in DMEM-F12 (5% BSA)). For blocking PSMA-specific binding and uptake, 25 µL of 2-(phosphonomethyl)pentane-1,5-dioic acid (2-PMPA) (100 µM in DMEM (5% BSA)) instead of DMEM-F12 (5% BSA) were added prior to radiotracer addition. […] Each experiment (control and blockade) was performed in triplicate. […] Incubation was terminated by placing the plate on ice (4 °C, 1 min) and removal of the incubation medium. The cells were washed with 250 µL of ice-cold PBS and the wash medium was combined with the respective supernatant. This fraction represents the amount of free radioligand. 250 µL of ice-cold 2-PMPA (10 µM in PBS) were added and the cells were incubated for 10 min at 4 °C. Afterwards, the cells were rinsed again with 250 µL of ice-cold PBS and the wash medium was combined with the respective supernatant. This fraction represents the amount of cell surface-bound ligand. In the last step, the cells were lysed by addition of 250 µL of 1 M aqueous NaOH. After 20 min, the lysate of each well was transferred to the respective vial as well as 250 µL of 1 M NaOH used for rinsing the well. This fraction represents the amount of internalized radioligand. Quantification of the amount of free, cell surface-bound and internalized activity was performed in a γ-counter.

[1] = Lipophilicity (log D), shake-flask method; type: physicochemical; conditions: n-octanol/PBS pH 7.4, 177Lu-labeled compound, n = 6
Experimental: The log D values were determined, using the shake-flask method as previously described (Wurzer et al. [2020]). The radiolabeled tracer (0.5–1 MBq, 20 μL) was dissolved in 1 mL of a 1/1 mixture (v/v) of PBS (pH 7.4) and n-octanol in a reaction vial (n = 6). After vigorous mixing of the suspension for 3 min at r.t., the vial was centrifuged at 9000 rpm (ca. 7700×g) for 5 min at room temperature (Heraeus Biofuge 15, Thermo Fisher Scientific, Darmstadt, Germany) and 150 μL aliquots of both layers were measured in a ɣ-counter.

[2] = system: LNCaP tumor xenograft-bearing CB17-SCID mice; type: in vivo, mouse; conditions: 24 h p.i.
Experimental: All animal experiments were conducted in accordance with general animal welfare regulations in Germany (German animal protection act, as amended on 18.05.2018, Art. 141 G v. 29.3.2017 I 626, approval no. 55.2–1-54-2532-71-13) and the institutional guidelines for the care and use of animals. To establish tumor xenografts, LNCaP cells (approx. 10^7 cells) were suspended in 200 μL of a 1/1 mixture (v/v) of DMEM F-12 and Matrigel (BD Biosciences, Heidelberg, Germany) and inoculated subcutaneously onto the right shoulder of 6–8 weeks old CB17-SCID mice (Charles River Laboratories, Sulzfeld, Germany). Mice were used for experiments when tumor size reached 5–10 mm in diameter (3–6 weeks after inoculation).
(§3) Approximately 2–10 MBq (0.20 nmol) of the ^177Lu-labeled PSMA inhibitors were injected into the tail vein of LNCaP tumor xenograft-bearing male CB17-SCID mice (n = 3 to 5). They were sacrificed by CO2 asphyxiation and cervical dislocation either 1 h or 24 h post injection (p.i.) (n = 3 for [^177Lu]Lu-5, -6 & -7 (proinhibitor compounds I-III), n = 4 for [^177Lu]Lu-10 (alkyne), n = 5 for [^177Lu]Lu-3 (carbamate I) and n = 5 for [^177Lu]Lu-11 (tetrazole)). Selected organs were removed, weighed and organ activities measured in a γ-counter.
as §3, with “2 - 10” for “2–10”, “(alkyne) and” for “(alkyne),”

[3] = in vivo; cited from earlier work

T1 sequence (Q04609 whole entry): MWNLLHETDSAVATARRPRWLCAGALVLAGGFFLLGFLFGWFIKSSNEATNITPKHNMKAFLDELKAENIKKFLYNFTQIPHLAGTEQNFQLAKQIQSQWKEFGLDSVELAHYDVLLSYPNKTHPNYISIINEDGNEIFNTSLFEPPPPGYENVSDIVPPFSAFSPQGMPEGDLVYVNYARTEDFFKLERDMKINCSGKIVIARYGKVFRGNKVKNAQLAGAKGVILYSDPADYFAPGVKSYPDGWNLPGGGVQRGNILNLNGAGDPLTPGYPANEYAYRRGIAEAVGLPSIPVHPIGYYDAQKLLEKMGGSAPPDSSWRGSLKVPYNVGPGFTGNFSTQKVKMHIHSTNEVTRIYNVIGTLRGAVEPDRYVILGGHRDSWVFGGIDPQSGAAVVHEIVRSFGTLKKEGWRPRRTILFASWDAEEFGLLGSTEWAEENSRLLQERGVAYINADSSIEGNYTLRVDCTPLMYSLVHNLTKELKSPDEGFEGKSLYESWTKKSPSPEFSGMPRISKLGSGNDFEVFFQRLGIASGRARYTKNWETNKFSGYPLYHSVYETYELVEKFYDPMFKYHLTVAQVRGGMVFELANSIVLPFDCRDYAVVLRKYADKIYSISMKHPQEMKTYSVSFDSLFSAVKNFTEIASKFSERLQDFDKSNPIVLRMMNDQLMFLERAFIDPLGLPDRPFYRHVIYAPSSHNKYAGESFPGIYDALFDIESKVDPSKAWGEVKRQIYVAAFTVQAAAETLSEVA

Compound | IC50 (PSMA) [µM] | internalization (in words) (LNCaP cells; 1 h) | %Internalization compared to the reference (LNCaP cells; 0.5 h) | %Internalization compared to the reference (LNCaP cells; 1 h) | %Internalization compared to the reference (LNCaP cells; 2 h) | %Internalization compared to the reference (LNCaP cells; 4 h) | log D [1] | Biodistribution Heart [2] [% ID/g] | Biodistribution Intestine [2] [% ID/g] | Biodistribution Kidneys [2] [% ID/g] | Biodistribution Liver [2] [% ID/g] | Biodistribution Lung [2] [% ID/g] | Biodistribution Pancreas [2] [% ID/g] | Biodistribution Parotid gland [2] [% ID/g] | Biodistribution Spleen [2] [% ID/g] | Biodistribution Stomach [2] [% ID/g] | Biodistribution Submandibular gland [2] [% ID/g] | Biodistribution Tumor [2] [% ID/g] | also measured
CSCC[C@H](NC(=O)CC[C@H](NC(=O)N[C@@H](CCC(=O)N[C@H](CCCNC(=O)CCC(=O)NCCCC[C@@H](NC(=O)[C@@H](CNC(=O)c1ccc([Si](F)(C(C)(C)C)C(C)(C)C)cc1)NC(=O)CN1CCN(CC(=O)[O-])CCN(CC(=O)[O-])CCN(CC(=O)[O-])CC1)C(=O)O)C(=O)O)C(=O)O)C(=O)O)C(=O)O.[Lu+3] [^natLu/[^177Lu]Lu-5] | 26 ± 16 | no internalization could be detected | 0.00 ± 0.00% | 0.00 ± 0.00% | 0.17 ± 0.32% | 0.01 ± 0.05% | −2.89 ± 0.18 | 0.01 ± 0.00 | 0.55 ± 0.04 | 0.48 ± 0.02 | 0.05 ± 0.00 | 0.33 ± 0.30 | 0.01 ± 0.00 | 0.02 ± 0.00 | 0.05 ± 0.01 | 0.14 ± 0.07 | 0.02 ± 0.01 | 0.09 ± 0.02 | 
CCCCCCC(NC(=O)C(CCC(=O)O)NC(=O)NC(CCC(=O)NC(CCCNC(=O)CCC(=O)NCCCCC(NC(=O)C(CNC(=O)c1ccc([Si](F)(C(C)(C)C)C(C)(C)C)cc1)NC(=O)CN1CCN(CC(=O)[O-])CCN(CC(=O)[O-])CCN(CC(=O)[O-])CC1)C(=O)O)C(=O)O)C(=O)O)C(=O)O.[Lu+3] (centres unmarked) [^natLu/[^177Lu]Lu-7] | 6.3 ± 3.6 | no internalization could be detected | 0.5 h: 0.00 ± 0.00 1 h: 0.00 ± 0.00 2 h: 0.00 ± 0.00 4 h: 0.00 ± 0.00% | 0.5 h: 0.00 ± 0.00 1 h: 0.00 ± 0.00 2 h: 0.00 ± 0.00 4 h: 0.00 ± 0.00% | 0.5 h: 0.00 ± 0.00 1 h: 0.00 ± 0.00 2 h: 0.00 ± 0.00 4 h: 0.00 ± 0.00% | 0.5 h: 0.00 ± 0.00 1 h: 0.00 ± 0.00 2 h: 0.00 ± 0.00 4 h: 0.00 ± 0.00% | −2.37 ± 0.22 | 0.03 ± 0.01 | 0.10 ± 0.05 | 2.04 ± 0.75 | 0.17 ± 0.05 | 0.04 ± 0.01 | 0.02 ± 0.00 | 0.06 ± 0.01 | 0.08 ± 0.02 | 0.04 ± 0.01 | 0.05 ± 0.02 | 0.14 ± 0.05 | Biodistribution Adrenals [2]: 0.03 ± 0.01 % ID/g; Biodistribution Blood [2]: 0.01 ± 0.00 % ID/g; Biodistribution Bone [2]: 0.04 ± 0.01 % ID/g; Biodistribution Muscle [2]: 0.01 ± 0.00 % ID/g
botulinum toxin |  |  |  |  |  |  |  |  |  |  |  |  |  |  |  |  |  |  | decrease of the SUVmean in the right parotid gland compared to the left (control) [3]: up to 64%
